Active and inactive are the calls of the source. The rule behind the calls is not given here.
Columns and labels:
Rattus norvegicus [1] = experiment: Inhibition of granuloma formation in cotton pellet implanted Lewis rat at 5.0 mg/kg, po bid; type: functional
Progesterone receptor = molecular target: T1, Progesterone receptor (Homo sapiens, UniProt P06401); experiment: Inhibition of human progesterone receptor
T1 sequence (P06401 whole entry): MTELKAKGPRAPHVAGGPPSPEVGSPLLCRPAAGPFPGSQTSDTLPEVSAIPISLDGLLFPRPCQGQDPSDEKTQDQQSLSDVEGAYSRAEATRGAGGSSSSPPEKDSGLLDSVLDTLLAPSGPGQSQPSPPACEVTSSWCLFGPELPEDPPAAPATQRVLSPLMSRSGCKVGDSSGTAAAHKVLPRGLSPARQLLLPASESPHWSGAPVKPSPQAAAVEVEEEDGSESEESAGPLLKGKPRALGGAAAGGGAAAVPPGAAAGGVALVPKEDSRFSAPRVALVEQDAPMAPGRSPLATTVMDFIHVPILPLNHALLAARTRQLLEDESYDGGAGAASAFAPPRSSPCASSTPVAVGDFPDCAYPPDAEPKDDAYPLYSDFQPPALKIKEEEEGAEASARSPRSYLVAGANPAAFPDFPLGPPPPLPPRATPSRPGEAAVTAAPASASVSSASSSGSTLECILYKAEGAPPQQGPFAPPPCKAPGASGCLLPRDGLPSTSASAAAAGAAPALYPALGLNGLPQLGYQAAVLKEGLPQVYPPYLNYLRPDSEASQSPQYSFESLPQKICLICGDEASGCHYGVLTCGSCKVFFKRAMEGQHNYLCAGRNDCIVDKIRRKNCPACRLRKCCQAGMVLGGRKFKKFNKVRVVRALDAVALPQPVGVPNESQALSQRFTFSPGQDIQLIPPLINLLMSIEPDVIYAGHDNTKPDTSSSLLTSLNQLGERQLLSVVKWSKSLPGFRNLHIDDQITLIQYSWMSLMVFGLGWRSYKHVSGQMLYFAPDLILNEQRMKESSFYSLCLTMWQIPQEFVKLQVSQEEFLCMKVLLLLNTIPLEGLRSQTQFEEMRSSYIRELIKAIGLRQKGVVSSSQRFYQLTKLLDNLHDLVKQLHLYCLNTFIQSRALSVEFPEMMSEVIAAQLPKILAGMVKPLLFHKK

[2] = Plasma clearance in rat; type: ADME, organism-based
[3] = Half life in rat; type: ADME, organism-based; conditions: in vivo
[4] = Volume of distribution at steady state in rat; type: ADME, organism-based; conditions: in vivo, read-out: Vdss
[5] = Oral bioavailability in rat; type: ADME, organism-based; conditions: in vivo
Mus musculus = species on record: Mus musculus; experiment: Inhibition of LPS-induced TNFalpha production in mouse; type: functional
Rattus norvegicus [6] = experiment: Effect on body weight change in Lewis rat with implanted cotton pellets at 5.0 mg/kg, po bid for 4 days; type: functional
Rattus norvegicus [7] = experiment: Effect on body weight change in Lewis rat with implanted cotton pellets at 10 mg/kg, po bid for 4 days; type: functional
Rattus norvegicus [8] = experiment: Effect on body weight change in Lewis rat with implanted cotton pellets at 19 mg/kg, po bid for 4 days; type: functional
Rattus norvegicus [9] = experiment: Effect on body weight change in Lewis rat with implanted cotton pellets at 5.0 mg/kg, po bid for 7 days; type: functional
Rattus norvegicus [10] = experiment: Effect on body weight change in Lewis rat with implanted cotton pellets at 10 mg/kg, po bid for 7 days; type: functional
Rattus norvegicus [11] = experiment: Effect on body weight change in Lewis rat with implanted cotton pellets at 19 mg/kg, po bid for 7 days; type: functional
Rattus norvegicus [12] = experiment: Effect on spleen weight in Lewis rat with implanted cotton pellets at 5.0 mg/kg, po bid; type: functional
Rattus norvegicus [13] = experiment: Effect on spleen weight in Lewis rat with implanted cotton pellets at 10 mg/kg, po bid; type: functional
Rattus norvegicus [14] = experiment: Effect on spleen weight in Lewis rat with implanted cotton pellets at 19 mg/kg, po bid; type: functional
Rattus norvegicus [15] = experiment: Effect on thymus weight in Lewis rat with implanted cotton pellets at 5.0 mg/kg, po bid; type: functional
Rattus norvegicus [16] = experiment: Effect on thymus weight in Lewis rat with implanted cotton pellets at 10 mg/kg, po bid; type: functional
Rattus norvegicus [17] = experiment: Effect on thymus weight in Lewis rat with implanted cotton pellets at 19 mg/kg, po bid; type: functional
Rattus norvegicus [18] = experiment: Effect on adrenal weight in Lewis rat with implanted cotton pellets at 5.0 mg/kg, po bid; type: functional
Rattus norvegicus [19] = experiment: Effect on adrenal weight in Lewis rat with implanted cotton pellets at 10 mg/kg, po bid; type: functional
Rattus norvegicus [20] = experiment: Effect on adrenal weight in Lewis rat with implanted cotton pellets at 19 mg/kg, po bid; type: functional
Rattus norvegicus [21] = experiment: Inhibition of granuloma formation in cotton pellet implanted Lewis rat at 10 mg/kg, po bid; type: functional
Rattus norvegicus [22] = experiment: Inhibition of granuloma formation in cotton pellet implanted Lewis rat at 19 mg/kg, po bid; type: functional
Rattus norvegicus [23] = species on record: Rattus norvegicus; experiment: Transactivation activity of glutamine synthase in rat skeletal muscle cells relative to Dexamethasone; type: cell-based
[24] = molecular target: T2, Interstitial collagenase (Homo sapiens) (UniProt P03956); experiment: Inhibition of glucocorticoid-mediated human MMP1 expression in PMA stimulated A549 cells assessed as MMP1 protein level by ELISA relative to Dexamethasone; type: cell-based; set-up: scale not given: the % may be the effect or the level left
T2 sequence (whole entry): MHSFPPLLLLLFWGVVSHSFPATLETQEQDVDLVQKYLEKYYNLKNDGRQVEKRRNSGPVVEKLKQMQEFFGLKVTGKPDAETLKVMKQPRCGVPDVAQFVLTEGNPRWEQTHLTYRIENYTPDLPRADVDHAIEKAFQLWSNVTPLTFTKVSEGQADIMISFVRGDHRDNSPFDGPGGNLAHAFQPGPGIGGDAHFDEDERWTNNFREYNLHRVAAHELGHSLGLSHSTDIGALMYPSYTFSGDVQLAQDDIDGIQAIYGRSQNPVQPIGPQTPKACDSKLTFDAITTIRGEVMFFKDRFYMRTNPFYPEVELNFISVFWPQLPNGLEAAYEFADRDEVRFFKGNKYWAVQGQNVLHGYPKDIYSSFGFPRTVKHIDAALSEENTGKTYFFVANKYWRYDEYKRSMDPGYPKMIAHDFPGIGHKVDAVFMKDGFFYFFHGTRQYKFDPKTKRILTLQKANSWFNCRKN

Glucocorticoid receptor = molecular target: T3, Glucocorticoid receptor (Homo sapiens, UniProt P04150)
T3 sequence (P04150 whole entry): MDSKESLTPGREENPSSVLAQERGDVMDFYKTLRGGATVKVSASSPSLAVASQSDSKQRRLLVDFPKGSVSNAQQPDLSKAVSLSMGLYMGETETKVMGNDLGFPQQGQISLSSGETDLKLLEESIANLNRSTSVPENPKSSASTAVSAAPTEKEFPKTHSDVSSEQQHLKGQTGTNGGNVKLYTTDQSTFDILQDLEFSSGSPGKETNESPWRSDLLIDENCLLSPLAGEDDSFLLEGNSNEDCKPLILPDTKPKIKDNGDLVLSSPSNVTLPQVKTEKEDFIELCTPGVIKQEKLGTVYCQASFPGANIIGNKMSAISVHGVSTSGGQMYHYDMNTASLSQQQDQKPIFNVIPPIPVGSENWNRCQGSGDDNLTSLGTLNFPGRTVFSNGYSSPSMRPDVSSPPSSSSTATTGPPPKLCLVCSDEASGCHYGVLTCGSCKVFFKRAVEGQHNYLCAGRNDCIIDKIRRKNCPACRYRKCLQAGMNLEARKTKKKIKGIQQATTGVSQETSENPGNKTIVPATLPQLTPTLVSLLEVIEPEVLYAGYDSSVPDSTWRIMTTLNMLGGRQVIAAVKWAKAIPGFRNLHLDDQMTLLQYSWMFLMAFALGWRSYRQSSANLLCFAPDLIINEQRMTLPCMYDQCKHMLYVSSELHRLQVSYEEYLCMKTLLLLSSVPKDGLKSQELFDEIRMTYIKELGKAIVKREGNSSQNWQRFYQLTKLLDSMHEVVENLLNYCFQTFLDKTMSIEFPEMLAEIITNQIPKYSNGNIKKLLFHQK
Description: Inhibition of human glucocorticoid receptor

Rattus norvegicus [25] = experiment: Effect on body weight change in Zucker fatty rat at 30 mg/kg, after 5 days
Rattus norvegicus [26] = experiment: Effect on plasma insulin level in Zucker fatty rat at 30 mg/kg, after 5 days
Rattus norvegicus [27] = experiment: Effect on plasma triglyceride level in Zucker fatty rat at 30 mg/kg, after 5 days
Rattus norvegicus [28] = experiment: Effect on plasma glucose level in nonfasted Zucker fatty rat at 30 mg/kg, after 5 days
Rattus norvegicus [29] = experiment: Inhibition of granuloma formation in cotton pellet implanted Lewis rat at 1.0 mg/kg, po bid; type: functional
Rattus norvegicus [30] = experiment: Effect on body weight change in Lewis rat with implanted cotton pellets at 1.0 mg/kg, po bid for 4 days; type: functional
Rattus norvegicus [31] = experiment: Effect on body weight change in Lewis rat with implanted cotton pellets at 2.5 mg/kg, po bid for 4 days; type: functional
Rattus norvegicus [32] = experiment: Effect on body weight change in Lewis rat with implanted cotton pellets at 6.0 mg/kg, po bid for 4 days; type: functional
Rattus norvegicus [33] = experiment: Effect on body weight change in Lewis rat with implanted cotton pellets at 1.0 mg/kg, po bid for 7 days; type: functional
Rattus norvegicus [34] = experiment: Effect on body weight change in Lewis rat with implanted cotton pellets at 2.5 mg/kg, po bid for 7 days; type: functional
Rattus norvegicus [35] = experiment: Effect on body weight change in Lewis rat with implanted cotton pellets at 6.0 mg/kg, po bid for 7 days; type: functional
Rattus norvegicus [36] = experiment: Effect on spleen weight in Lewis rat with implanted cotton pellets at 1.0 mg/kg, po bid; type: functional
Rattus norvegicus [37] = experiment: Effect on spleen weight in Lewis rat with implanted cotton pellets at 2.5 mg/kg, po bid; type: functional
Rattus norvegicus [38] = experiment: Effect on spleen weight in Lewis rat with implanted cotton pellets at 6.0 mg/kg, po bid; type: functional
Rattus norvegicus [39] = experiment: Effect on thymus weight in Lewis rat with implanted cotton pellets at 1.0 mg/kg, po bid; type: functional
Rattus norvegicus [40] = experiment: Effect on thymus weight in Lewis rat with implanted cotton pellets at 2.5 mg/kg, po bid; type: functional
Rattus norvegicus [41] = experiment: Effect on thymus weight in Lewis rat with implanted cotton pellets at 6.0 mg/kg, po bid; type: functional
Rattus norvegicus [42] = experiment: Effect on adrenal weight in Lewis rat with implanted cotton pellets at 1.0 mg/kg, po bid; type: functional
Rattus norvegicus [43] = experiment: Effect on adrenal weight in Lewis rat with implanted cotton pellets at 2.5 mg/kg, po bid; type: functional
Rattus norvegicus [44] = experiment: Effect on adrenal weight in Lewis rat with implanted cotton pellets at 6.0 mg/kg, po bid; type: functional
Rattus norvegicus [45] = experiment: Inhibition of granuloma formation in cotton pellet implanted Lewis rat at 6.0 mg/kg, po bid; type: functional
Rattus norvegicus [46] = experiment: Inhibition of granuloma formation in cotton pellet implanted Lewis rat at 2.5 mg/kg, po bid; type: functional

Compound: CCNC(=O)O[C@]1(C(=O)CO)[C@@H](C)C[C@H]2[C@@H]3CCC4=CC(=O)C=C[C@]4(C)[C@@]3(F)[C@@H](O)C[C@@]21C
- inhibition in vivo at 5 mg/kg (Rattus norvegicus [1]): 35.6%
- IC50 (Progesterone receptor): > 1000 nM
- clearance [2]: 26 mL/min/kg
- half-life [3]: 2.2 h
- Vd [4]: 3.22 L/kg
- bioavailability [5]: 43%
- ED50 (Mus musculus): 0.1 mg/kg
- Activity (Rattus norvegicus [6]): 5.9 g
- Activity (Rattus norvegicus [7]): 7.3 g
- Activity (Rattus norvegicus [8]): 5.6 g
- Activity (Rattus norvegicus [9]): 11 g
- Activity (Rattus norvegicus [10]): 10 g
- Activity (Rattus norvegicus [11]): 7.5 g
- Activity (Rattus norvegicus [12]): 330.9 mg
- Activity (Rattus norvegicus [13]): 311.2 mg
- Activity (Rattus norvegicus [14]): 305.3 mg
- Activity (Rattus norvegicus [15]): 170.7 mg
- Activity (Rattus norvegicus [16]): 144.9 mg
- Activity (Rattus norvegicus [17]): 119.9 mg
- Activity (Rattus norvegicus [18]): 39 mg
- Activity (Rattus norvegicus [19]): 36.8 mg
- Activity (Rattus norvegicus [20]): 30.8 mg
- inhibition in vivo at 10 mg/kg (Rattus norvegicus [21]): 33.5%
- inhibition in vivo at 19 mg/kg (Rattus norvegicus [22]): 44.6%
- Activity (Rattus norvegicus [23]): 23.4%
- Activity [24]: 104%
- IC50 (Glucocorticoid receptor): 5.1 nM
- Activity (Rattus norvegicus [25]): Active
- Activity (Rattus norvegicus [26]): Active
- Activity (Rattus norvegicus [27]): Active
- Activity (Rattus norvegicus [28]): Active

Compound: C[C@]12C=CC(=O)C=C1CC[C@@H]1[C@@H]2[C@@H](O)C[C@@]2(C)[C@H]1CC[C@]2(O)C(=O)CO [PREDNISOLONE]
- inhibition in vivo at 1 mg/kg (Rattus norvegicus [29]): 37.6%
- ED50 (Mus musculus): 0.5 mg/kg
- Activity (Rattus norvegicus [30]): 1.5 g
- Activity (Rattus norvegicus [31]): -1 g
- Activity (Rattus norvegicus [32]): -3.6 g
- Activity (Rattus norvegicus [33]): 3 g
- Activity (Rattus norvegicus [34]): -0.4 g
- Activity (Rattus norvegicus [35]): -4.1 g
- Activity (Rattus norvegicus [36]): 334.7 mg
- Activity (Rattus norvegicus [37]): 266.8 mg
- Activity (Rattus norvegicus [38]): 260 mg
- Activity (Rattus norvegicus [39]): 219.5 mg
- Activity (Rattus norvegicus [40]): 117.8 mg
- Activity (Rattus norvegicus [41]): 104 mg
- Activity (Rattus norvegicus [42]): 38.7 mg
- Activity (Rattus norvegicus [43]): 26.9 mg
- Activity (Rattus norvegicus [44]): 27.9 mg
- inhibition in vivo at 6 mg/kg (Rattus norvegicus [45]): 56.2%
- inhibition in vivo at 2.5 mg/kg (Rattus norvegicus [46]): 49.3%

Reference: ChEMBL document CHEMBL1156642, “Discovery of betamethasone 17alpha-carbamates as dissociated glucocorticoid receptor modulators in the rat” (Bioorg Med Chem, 2008)
